The source made the active and inactive calls. The rule behind the calls is not given here.
Assays:
[1] = Disaggregation of Cu2+ induced amyloid beta (1 to 42 residues) (unknown origin) aggregation at 25 uM by thioflavin-T fluorescence method relative to control
[2] = test system: Mus musculus; experiment: Antialzheimer activity in scopolamine-induced Kunming mouse model of memory impairment assessed as GC bases ratio (QC data) in brain hippocampus at 5 mg/kg , po by illumina sequencing method (reference value: 53.64%); assay type: functional
[3] = target: T1, Cholinesterase (Homo sapiens, UniProt P06276); experiment: Reversible inhibition of human BChE assessed as residual activity at IC50 concentration relative to control
T1 sequence (P06276 whole entry): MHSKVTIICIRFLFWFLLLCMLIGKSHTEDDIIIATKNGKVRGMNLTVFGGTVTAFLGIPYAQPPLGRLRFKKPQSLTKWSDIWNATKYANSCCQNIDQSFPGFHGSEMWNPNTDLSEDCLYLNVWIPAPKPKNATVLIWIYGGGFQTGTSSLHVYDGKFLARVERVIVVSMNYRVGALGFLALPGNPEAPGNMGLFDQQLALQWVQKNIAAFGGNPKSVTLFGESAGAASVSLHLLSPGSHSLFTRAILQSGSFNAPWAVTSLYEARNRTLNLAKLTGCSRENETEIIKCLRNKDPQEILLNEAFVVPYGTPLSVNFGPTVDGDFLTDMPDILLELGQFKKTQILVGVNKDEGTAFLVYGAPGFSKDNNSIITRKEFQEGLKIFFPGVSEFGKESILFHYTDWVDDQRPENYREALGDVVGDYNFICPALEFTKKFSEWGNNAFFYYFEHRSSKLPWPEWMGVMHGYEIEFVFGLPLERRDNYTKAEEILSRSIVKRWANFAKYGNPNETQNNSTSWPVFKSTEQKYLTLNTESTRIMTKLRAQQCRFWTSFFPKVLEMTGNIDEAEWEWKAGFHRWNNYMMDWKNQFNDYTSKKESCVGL

[4] = organism: Danio rerio; experiment: Antialzheimer activity in Alcl3-induced zebra fish AD model assessed as increase in motility at 0.78 ug/ml relative to control; assay type: functional; conditions: dose 0.78 µg/ml
[5] = test system: HT-22; experiment: Activation of ubiquitin-proteasome system in mouse HT-22 cells expressing YFP-CLI assessed as reduction in GFP level at 10 uM after 24 hrs by flow cytometric analysis; assay type: cell-based; conditions: filed as activator
[6] = Metal chelating activity assessed as Cu2+-compound complex formation in water at 37.5 uM by UV-Visible spectra analysis
[7] = organism: Danio rerio; experiment: Antialzheimer activity in Alcl3-induced zebra fish AD model assessed as increase in motility at 0.26 ug/ml relative to control; assay type: functional; conditions: dose 0.26 µg/ml
[8] = Drug metabolism in mouse urine assessed as metabolite formation by UPLC-TOF analysis; assay type: ADME
[9] = Toxicity in 3 dpf zebra fish assessed as mortality at 6.25 ug/ml (reference value: 0%); design: species or system Danio rerio; conditions: zebrafish, at 6.25 µg/mL, read-out: Activity
[10] = Toxicity in 2 dpf zebra fish assessed as edema in kidney at 25 ug/ml after 3 days relative to control; design: species or system Danio rerio; conditions: zebrafish, 72 h, at 25 µg/mL, time 3 day
[11] = test system: HT-22; experiment: Activation of ubiquitin-proteasome system in mouse HT-22 cells expressing pRK5-GFP-Tau assessed as increase in tau degradation by measuring reduction in GFP level at 2.5 to 20 uM after 24 hrs by Western blot analysis; assay type: cell-based; conditions: filed as activator, dose 2.5-20 µM
[12] = organism: Danio rerio; experiment: Antialzheimer activity in Alcl3-induced zebra fish AD model assessed as increase in motility at 0.09 ug/ml relative to control; assay type: functional; conditions: dose 0.09 µg/ml
[13] = Toxicity in 2 dpf zebra fish assessed as bradycardia at 25 ug/ml after 3 days relative to control; design: species or system Danio rerio; conditions: zebrafish, 72 h, at 25 µg/mL, time 3 day
[14] = test system: PC-12; experiment: Neuroprotective activity against H2O2-induced cytotoxicity in rat PC-12 cells assessed as increase in cell viability preincubated for 2 hrs followed by H2O2 addition and measured after 24 hrs by MTT assay; assay type: functional, cell-based; conditions: dose 1-10 µM, time 26.0 hrs
[15] = Toxicity in 3 dpf zebra fish assessed as mortality at 1.56 ug/ml (reference value: 0%); design: species or system Danio rerio; conditions: zebrafish, at 1.56 µg/mL, read-out: Activity
[16] = test system: PC-12; experiment: Neuroprotective activity against H2O2-induced cytotoxicity in rat PC-12 cells assessed as decrease in LDH activity at 1 to 10 uM preincubated for 2 hrs followed by H2O2 addition and measured after 24 hrs by LDH assay; assay type: functional, cell-based; conditions: dose 1-10 µM, time 26.0 hrs
[17] = test system: Mus musculus; experiment: Antialzheimer activity in scopolamine-induced Kunming mouse model of memory impairment assessed as Q30 bases ratio (QC data) in brain hippocampus at 5 mg/kg , po by illumina sequencing method (reference value: 96.67%); assay type: functional
[18] = test system: HT-22; experiment: Activation of ubiquitin-proteasome system in mouse HT-22 cells expressing pEGFP-N1-APP assessed as increase in APP degradation by measuring reduction in GFP level at 2.5 to 20 uM after 24 hrs by flow cytometric analysis; assay type: cell-based; conditions: filed as activator, dose 2.5-20 µM
[19] = test system: U-87MG ATCC; experiment: Induction of autophagy in human U87 cells stably transfected GFP-LC3 assessed as increase in GFP-LC3 puncta formation at 10 uM after 24 hrs by fluorescence microscopic method; assay type: functional, cell-based
[20] = organism: Homo sapiens; experiment: Binding affinity to amyloid beta (1 to 42 residues) (unknown origin) assessed as dissociation rate constant by biolayer interferometry analysis
[21] = Effective permeability of compound at 100 ug/m by PAMPA-BBB assay; assay type: ADME; conditions: read-out: Peff
[22] = Toxicity in 2 dpf zebra fish assessed as dark brown liver at 8.33 ug/ml after 3 days relative to control; design: species or system Danio rerio; conditions: zebrafish, 72 h, at 8.33 µg/mL, time 3 day
[23] = Metal chelating activity assessed as Cu2+-compound complex formation in methanol at 37.5 uM by UV-Visible spectra analysis
[24] = test system: Mus musculus; experiment: Antialzheimer activity in scopolamine-induced Kunming mouse model of memory impairment assessed as latency time at 50 mg/kg , po by step-down passive avoidance test (reference value: 125.65 sec); assay type: functional
[25] = test system: Mus musculus; experiment: Antialzheimer activity in scopolamine-induced Kunming mouse model of memory impairment assessed as latency time at 5 mg/kg , po by step-down passive avoidance test (reference value: 125.65 sec); assay type: functional
[26] = organism: Danio rerio; experiment: Antialzheimer activity in Alcl3-induced zebra fish AD model assessed as increase dyskinesia recovery rate; assay type: functional, organism-based
[27] = Drug metabolism in rat liver microsomes assessed as metabolite formation by UPLC-TOF analysis; assay type: ADME, Microsome
[28] = Inhibition of self-induced amyloid beta (1 to 42 residues) (unknown origin) aggregation by thioflavin T based fluorescence assay; design: species or system Homo sapiens; conditions: read-out: IC50
[29] = Toxicity in 3 dpf zebra fish assessed as mortality at 3.125 ug/ml (reference value: 0%); design: species or system Danio rerio; conditions: zebrafish, at 3.125 µg/mL, read-out: Activity
[30] = Toxicity in 2 dpf zebra fish assessed as yolk sac absorption delay at 25 ug/ml after 3 days relative to control; design: species or system Danio rerio; conditions: zebrafish, 72 h, at 25 µg/mL, time 3 day
[31] = Metal chelating activity assessed as Fe2+-compound complex formation in water at 37.5 uM by UV-Visible spectra analysis
[32] = Metal chelating activity assessed as Zn2+-compound complex formation in methanol at 37.5 uM by UV-Visible spectra analysis
[33] = Metal chelating activity assessed as Fe2+-compound complex formation in methanol at 37.5 uM by UV-Visible spectra analysis
[34] = Metal chelating activity assessed as Fe2+-compound complex formation in PBS buffer at pH 7.4 at 37.5 uM by UV-Visible spectra analysis
[35] = test system: Mus musculus; experiment: Antialzheimer activity in scopolamine-induced Kunming mouse model of memory impairment assessed as total reads in brain hippocampus at 5 mg/kg , po by illumina sequencing method (reference value: 100%); assay type: functional
[36] = target: T1, Cholinesterase; experiment: Reversible inhibition of human BChE assessed as residual activity at 0.1 times of IC50 concentration relative to control
[37] = Selectivity index, ratio of IC50 for inhibition of equine serum BChE to IC50 for inhibition of electric eel AChE
[38] = Drug metabolism in mouse feces assessed as metabolite formation by UPLC-TOF analysis; assay type: ADME
[39] = test system: SH-SY5Y; experiment: Neuroprotective activity against amyloid beta (1 to 42 residues)-induced cytotoxicity in human SH-SY5Y cells assessed as increase in cell viability at 1 to 10 uM incubated for 48 hrs by MTT assay; assay type: functional, cell-based; conditions: dose 1-10 µM

## CCN(CCCCOc1ccc(-c2cc(=O)c3c(O)cc(OCCCCN(CC)Cc4ccccc4)cc3o2)cc1)Cc1ccccc1
[1]
  Activity: 81.3%
[2]
  Activity: 59.05%
[3]
  Activity: 42.3%
[4]
  Activity: 84%
[5]
  Activity: Active
[6]
  Activity: inactive
[7]
  Activity: 81%
[8]
  Drug metabolism: Metabolite_Detected
[9]
  mortality at 6.25 ug/ml: 100%
[10]
  Activity: 66.7%
[11]
  Activity: Active
[12]
  Activity: 72%
[13]
  Activity: 66.7%
[14]
  Activity: Dose-dependent effect
[15]
  mortality at 1.56 ug/ml: 6.7%
[16]
  Activity: Active
[17]
  Activity: 96.56%
[18]
  Activity: Active
[19]
  Activity: Active
[20]
  Kdiss: 2.56 10^-2/s
[21]
  Papp at 100 ug/m: 1.68 ×10⁻⁶ cm/s
[22]
  Activity: 70%
[23]
  Activity: Active
[24]
  Time: 227.34 s
[25]
  Time: 261.82 s
[26]
  Activity: Dose-dependent effect
[27]
  Drug metabolism: Metabolite_Detected
[28]
  IC50: 5.8 µM
[29]
  mortality at 3.125 ug/ml: 100%
[30]
  Activity: 100%
[31]
  Activity: inactive
[32]
  Activity: inactive
[33]
  Activity: Active
[34]
  Activity: Active
[35]
  Activity: 100%
[36]
  Activity: 50%
[37]
  Ratio IC50: 2.6
[38]
  Drug metabolism: Metabolite_Detected
[39]
  Activity: Active

Reference: ChEMBL document CHEMBL4765274, “The development of advanced structural framework as multi-target-directed ligands for the treatment of Alzheimer's disease” (Eur J Med Chem, 2020)
